Consider 21 compounds from patent US20090018134A1, “Compounds - 945” (AstraZeneca AB, priority 2007, published 2009).

The target of this assay is T1, mTOR (Homo sapiens, UniProt P42345).
T1 construct: FLAG; made in house
T1 sequence (P42345 1362-2549): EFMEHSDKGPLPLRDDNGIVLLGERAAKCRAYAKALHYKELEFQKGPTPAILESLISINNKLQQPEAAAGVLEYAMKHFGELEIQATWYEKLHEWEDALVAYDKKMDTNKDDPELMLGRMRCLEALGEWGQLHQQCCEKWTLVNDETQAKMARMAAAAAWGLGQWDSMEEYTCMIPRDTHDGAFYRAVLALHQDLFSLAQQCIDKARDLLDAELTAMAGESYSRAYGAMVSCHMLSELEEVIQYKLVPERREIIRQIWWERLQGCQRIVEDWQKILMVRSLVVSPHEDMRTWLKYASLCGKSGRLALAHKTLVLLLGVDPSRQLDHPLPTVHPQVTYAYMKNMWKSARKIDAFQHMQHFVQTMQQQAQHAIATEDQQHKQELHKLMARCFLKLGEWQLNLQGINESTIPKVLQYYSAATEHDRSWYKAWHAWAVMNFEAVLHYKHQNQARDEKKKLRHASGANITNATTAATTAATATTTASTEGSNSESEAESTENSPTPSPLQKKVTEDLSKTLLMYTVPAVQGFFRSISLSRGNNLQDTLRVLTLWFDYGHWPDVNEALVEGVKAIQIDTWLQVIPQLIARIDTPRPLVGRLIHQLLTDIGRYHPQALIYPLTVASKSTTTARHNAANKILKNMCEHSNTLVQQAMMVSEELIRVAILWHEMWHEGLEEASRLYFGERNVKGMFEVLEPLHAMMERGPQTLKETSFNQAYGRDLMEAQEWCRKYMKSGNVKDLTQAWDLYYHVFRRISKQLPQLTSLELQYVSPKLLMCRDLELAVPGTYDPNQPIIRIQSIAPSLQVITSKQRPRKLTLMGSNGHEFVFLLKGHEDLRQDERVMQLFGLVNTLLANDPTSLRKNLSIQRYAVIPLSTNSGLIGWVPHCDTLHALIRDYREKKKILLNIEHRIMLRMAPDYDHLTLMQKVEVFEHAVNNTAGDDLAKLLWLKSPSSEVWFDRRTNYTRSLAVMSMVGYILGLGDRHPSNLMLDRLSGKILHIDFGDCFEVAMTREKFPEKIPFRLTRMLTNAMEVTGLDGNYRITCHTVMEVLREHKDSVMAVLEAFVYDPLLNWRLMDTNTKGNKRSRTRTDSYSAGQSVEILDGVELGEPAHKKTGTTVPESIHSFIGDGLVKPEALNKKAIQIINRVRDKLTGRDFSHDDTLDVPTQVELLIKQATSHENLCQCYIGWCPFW
As to the kind of experiment: In Vitro mTOR Kinase Assay (Echo), Test (a)(ii). In kind it is biochemical. Particulars: table of enzyme assay Test (a)(ii); read-out: Test (a)(ii) IC50. The essentials:
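Compounds were acoustically dispensed, then incubated with FLAG-tagged mTOR (1362-2549) for 2 hours at room temperature. Reactions were quenched with EDTA plus detection antibody and AlphaScreen beads and left overnight in the dark before reading. Loss of phospho-T389 signal gave IC50 values.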
For the compound `C[C@H]1COCCN1c1cc(C2(S(=O)(=O)c3cc(F)cc(F)c3)CC2)nc(-c2ccc(NC(=O)NC(C)(C)CO)cc2)n1` [Example 19k, 1-[4-[4-[1-(3,5-difluorophenyl)sulfonylcyclopro-pyl]-6-[(3S)-3-methylmorpholin-4-yl]pyrimidin-2-yl]phenyl]-3-(1-hydroxy-2-methylpropan-2-yl)urea], the IC50 (usually the concentration at which inhibition is half-maximal) was 4.15 nM.

Take `C[C@H]1COCCN1c1cc(C2(S(=O)(=O)c3cc(F)cc(F)c3)CC2)nc(-c2ccc(NC(=O)NCCCO)cc2)n1` [Example 19l, 1-[4-[4-[1-(3,5-difluorophenyl)sulfonylcyclopro-pyl]-6-[(3S)-3-methylmorpholin-4-yl]pyrimidin-2-yl]phenyl]-3-(3-hydroxypropyl)urea]: the IC50 was 1.52 nM.

With `C[C@H]1COCCN1c1cc(C2(S(=O)(=O)c3cc(F)cc(F)c3)CC2)nc(-c2ccc(NC(=O)Nc3cnn(C)c3)cc2)n1` [Example 19m, 1-[4-[4-[1-(3,5-difluorophenyl)sulfonylcyclopro-pyl]-6-[(3S)-3-methylmorpholin-4-yl]pyrimidin-2-yl]phenyl]-3-(1-methylpyrazol-4-yl)urea], the IC50 is 0.944 nM.

Turning to `C[C@H]1COCCN1c1cc(C2(S(C)(=O)=O)CCNCC2)nc(-c2ccc(NC(=O)NC3CC3)cc2)n1` [Example 20, 3-Cyclopropyl-1-[4-[4-[(3S)-3-methylmorpholin-4-yl]-6-(4-methylsulfonylpiperidin-4-yl)pyrimidin-2-yl]phenyl]urea], the IC50 worked out at 12.8 nM.

Take `CNC(=O)Nc1ccc(-c2nc(N3CCOC[C@@H]3C)cc(C3(S(C)(=O)=O)CCNCC3)n2)cc1` [Example 20a, 3-methyl-1-[4-[4-[(3S)-3-methylmorpholin-4-yl]-6-(4-methylsulfonylpiperidin-4-yl)pyrimidin-2-yl]phenyl]urea]: the IC50 stood at 16.3 nM.

As to `C[C@H]1COCCN1c1cc(C2(S(C)(=O)=O)CCNCC2)nc(-c2ccc(NC(=O)NCCN(C)C)cc2)n1` [Example 20b, 3-(2-dimethylaminoethyl)-1-[4-[4-[(3S)-3-methylmorpholin-4-yl]-6-(4-methylsulfonylpiperidin-4-yl)pyrimidin-2-yl]phenyl]urea], the IC50 came to 874 nM.

`C[C@H]1COCCN1c1cc(C2(S(C)(=O)=O)CCNCC2)nc(-c2ccc(NC(=O)NCCO)cc2)n1` [Example 20c, 3-(2-hydroxyethyl)-1-[4-[4-[(3S)-3-methylmorpholin-4-yl]-6-(4-methylsulfonylpiperidin-4-yl)pyrimidin-2-yl]phenyl]urea]: the IC50 came to 5.59 nM.

On to `C[C@H]1COCCN1c1cc(C2(S(C)(=O)=O)CCNCC2)nc(-c2ccc(NC(=O)Nc3cnn(C)c3)cc2)n1` [Example 20d, 1-[4-[4-[(3S)-3-methylmorpholin-4-yl]-6-(4-methylsulfonylpiperidin-4-yl)pyrimidin-2-yl]phenyl]-3-(1-methylpyrazol-4-yl)urea], for which the IC50 worked out at 13.3 nM.

Regarding `C[C@H]1COCCN1c1cc(C2(S(=O)(=O)C3CC3)CCNCC2)nc(-c2ccc(NC(=O)NC3CC3)cc2)n1` [Example 21, 3-Cyclopropyl-1-[4-[4-(4-cyclopropylsulfonylpiperidin-4-yl)-6-[(3S)-3-methylmorpholin-4-yl]pyrimidin-2-yl]phenyl]urea], the IC50 amounted to 25.3 nM.

With `CNC(=O)Nc1ccc(-c2nc(N3CCOC[C@@H]3C)cc(C3(S(=O)(=O)C4CC4)CCNCC3)n2)cc1` [Example 21a, 1-[4-[4-(4-cyclopropylsulfonylpiperidin-4-yl)-6-[(3S)-3-methylmorpholin-4-yl]pyrimidin-2-yl]phenyl]-3-methylurea], the IC50 worked out at 37.8 nM.

With `C[C@H]1COCCN1c1cc(C2(S(=O)(=O)C3CC3)CCNCC2)nc(-c2ccc(NC(=O)NCCO)cc2)n1` [Example 21b, 1-[4-[4-(4-cyclopropylsulfonylpiperidin-4-yl)-6-[(3S)-3-methylmorpholin-4-yl]pyrimidin-2-yl]phenyl]-3-(2-hydroxyethyl)urea], the IC50 came out at 13.3 nM.

In the case of `C[C@H]1COCCN1c1cc(C2(S(=O)(=O)C3CC3)CCNCC2)nc(-c2ccc(NC(=O)Nc3cnn(C)c3)cc2)n1` [Example 21c, 1-[4-[4-(4-cyclopropylsulfonylpiperidin-4-yl)-6-[(3S)-3-methylmorpholin-4-yl]pyrimidin-2-yl]phenyl]-3-(1-methylpyrazol-4-yl)urea], the IC50 was 23.4 nM.

On to `C[C@H]1COCCN1c1cc(C2(S(=O)(=O)c3cc(F)cc(F)c3)CCN(Cc3ccccc3)CC2)nc(-c2ccc(NC(=O)NC3CC3)cc2)n1` [Example 22, 1-[4-[4-[1-Benzyl-4-(3,5-difluorophenyl)sulfonylpiperidin-4-yl]-6-[(3S)-3-methylmorpholin-4-yl]pyrimidin-2-yl]phenyl]-3-cyclopropylurea], for which the IC50 was 503 nM.

For `CNC(=O)Nc1ccc(-c2nc(N3CCOC[C@@H]3C)cc(C3(S(C)(=O)=O)CCOCC3)n2)cc1` [Example 23a, 3-methyl-1-[4-[4-[(3S)-3-methylmorpholin-4-yl]-6-(4-methylsulfonyloxan-4-yl)pyrimidin-2-yl]phenyl]urea], the IC50 came to 4.59 nM.

With `C[C@H]1COCCN1c1cc(C2(S(C)(=O)=O)CCOCC2)nc(-c2ccc(NC(=O)NCCN(C)C)cc2)n1` [Example 23b, 3-(2-dimethylaminoethyl)-1-[4-[4-[(3S)-3-methylmorpholin-4-yl]-6-(4-methylsulfonyloxan-4-yl)pyrimidin-2-yl]phenyl]urea], the IC50 was 197 nM.

Regarding `C[C@H]1COCCN1c1cc(C2(S(C)(=O)=O)CCOCC2)nc(-c2ccc(NC(=O)NCCO)cc2)n1` [Example 23c, 3-(2-hydroxyethyl)-1-[4-[4-[(3S)-3-methylmorpholin-4-yl]-6-(4-methylsulfonyloxan-4-yl)pyrimidin-2-yl]phenyl]urea], the IC50 is 0.831 nM.

Regarding `C[C@H]1COCCN1c1cc(C2(S(C)(=O)=O)CCOCC2)nc(-c2ccc(NC(=O)Nc3cnn(C)c3)cc2)n1` [Example 23d, 1-[4-[4-[(3S)-3-methylmorpholin-4-yl]-6-(4-methylsulfonyloxan-4-yl)pyrimidin-2-yl]phenyl]-3-(1-methylpyrazol-4-yl)urea], the IC50 amounted to 5.34 nM.

For the compound `C[C@H]1COCCN1c1cc(C2(S(=O)(=O)C3CC3)CCOCC2)nc(-c2ccc(NC(=O)NC3CC3)cc2)n1` [Example 23e, 3-cyclopropyl-1-[4-[4-(4-cyclopropylsulfonyloxan-4-yl)-6-[(3S)-3-methylmorpholin-4-yl]pyrimidin-2-yl]phenyl]urea], the IC50 was determined as 8.76 nM.

In the case of `CNC(=O)Nc1ccc(-c2nc(N3CCOC[C@@H]3C)cc(C3(S(=O)(=O)C4CC4)CCOCC3)n2)cc1` [Example 23f, 1-[4-[4-(4-cyclopropylsulfonyloxan-4-yl)-6-[(3S)-3-methylmorpholin-4-yl]pyrimidin-2-yl]phenyl]-3-methylurea], the IC50 worked out at 19.9 nM.

For the compound `C[C@H]1COCCN1c1cc(C2(S(=O)(=O)C3CC3)CCOCC2)nc(-c2ccc(NC(=O)NCCN(C)C)cc2)n1` [Example 23g, 1-[4-[4-(4-cyclopropylsulfonyloxan-4-yl)-6-[(3S)-3-methylmorpholin-4-yl]pyrimidin-2-yl]phenyl]-3-(2-dimethylaminoethyl)urea], the IC50 worked out at 1210 nM.

As to `C[C@H]1COCCN1c1cc(C2(S(=O)(=O)C3CC3)CCOCC2)nc(-c2ccc(NC(=O)NCCO)cc2)n1` [Example 23h, 1-[4-[4-(4-cyclopropylsulfonyloxan-4-yl)-6-[(3S)-3-methylmorpholin-4-yl]pyrimidin-2-yl]phenyl]-3-(2-hydroxyethyl)urea], the IC50 stood at 8.08 nM.
